From PubChem BioAssay (NCI)
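Interpolation was linear, between the two tested concentrations surrounding the appropriate level; five concentrations were tested over 48 hours in 96-well plates. GI50 marks 50% less growth. TGI marks complete inhibition of growth.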

Experiments:
Test in all cases: NCI-60 cell line screen, 48 h; in the data active means GI50 below about 0.43 µM; inactive means the rest
UO-31 renal = test system: UO-31 renal
NCI-H460 lung = test system: NCI-H460 lung
UACC-257 melanoma = test system: UACC-257 melanoma
SK-MEL-2 melanoma = test system: SK-MEL-2 melanoma
OVCAR-4 ovarian = test system: OVCAR-4 ovarian
UACC-62 melanoma = test system: UACC-62 melanoma
CCRF-CEM leukemia = test system: CCRF-CEM leukemia
SNB-75 CNS = test system: SNB-75 CNS
HCT-116 colon = test system: HCT-116 colon
EKVX NSCLC = test system: EKVX NSCLC
LOX IMVI melanoma = test system: LOX IMVI melanoma
SF-295 CNS = test system: SF-295 CNS

NCCCCCC(CCN)SCC1OC(n2cnc3c(N)ncnc32)C(O)C1O (centres undefined)
> 1320 µM: TGI (UO-31 renal)
> 1500 µM: TGI (NCI-H460 lung) | TGI (UACC-257 melanoma) | TGI (SK-MEL-2 melanoma) | TGI (OVCAR-4 ovarian) | TGI (UACC-62 melanoma) | TGI (CCRF-CEM leukemia) | TGI (SNB-75 CNS) | TGI (HCT-116 colon) | TGI (EKVX NSCLC) | TGI (LOX IMVI melanoma) | TGI (SF-295 CNS)

COC(=O)/C=C1\SC2(OC1=Nc1ccccc1)C1CC3CC(C1)CC2C3 (centres undefined)
> 100 µM: TGI (UO-31 renal) | TGI (NCI-H460 lung) | TGI (UACC-257 melanoma) | TGI (SK-MEL-2 melanoma) | TGI (OVCAR-4 ovarian) | TGI (UACC-62 melanoma) | TGI (CCRF-CEM leukemia) | TGI (SNB-75 CNS) | TGI (HCT-116 colon) | TGI (EKVX NSCLC) | TGI (LOX IMVI melanoma) | TGI (SF-295 CNS)

Nc1ccccc1N
> 100 µM: TGI (UO-31 renal) | TGI (NCI-H460 lung) | TGI (SK-MEL-2 melanoma) | TGI (OVCAR-4 ovarian) | TGI (UACC-62 melanoma) | TGI (CCRF-CEM leukemia) | TGI (SNB-75 CNS) | TGI (HCT-116 colon) | TGI (LOX IMVI melanoma) | TGI (SF-295 CNS)

CCOC(=O)CC1=N/C(=N/C(=N)N[N+](=O)[O-])SC1
> 100 µM: TGI (UO-31 renal) | TGI (NCI-H460 lung) | TGI (UACC-257 melanoma) | TGI (SK-MEL-2 melanoma) | TGI (OVCAR-4 ovarian) | TGI (UACC-62 melanoma) | TGI (CCRF-CEM leukemia) | TGI (SNB-75 CNS) | TGI (HCT-116 colon) | TGI (EKVX NSCLC) | TGI (LOX IMVI melanoma) | TGI (SF-295 CNS)

O=C(O)c1ccccc1CN1CCCC(C(=O)O)C1 (centres undefined)
> 100 µM: TGI (UO-31 renal) | TGI (NCI-H460 lung) | TGI (UACC-257 melanoma) | TGI (SK-MEL-2 melanoma) | TGI (OVCAR-4 ovarian) | TGI (UACC-62 melanoma) | TGI (SNB-75 CNS) | TGI (HCT-116 colon) | TGI (EKVX NSCLC) | TGI (LOX IMVI melanoma) | TGI (SF-295 CNS)

CCOc1ccc(/C=C2\N=C(c3ccccc3)OC2=O)cc1
> 100 µM: TGI (UO-31 renal) | TGI (NCI-H460 lung) | TGI (UACC-257 melanoma) | TGI (SK-MEL-2 melanoma) | TGI (OVCAR-4 ovarian) | TGI (UACC-62 melanoma) | TGI (CCRF-CEM leukemia) | TGI (SNB-75 CNS) | TGI (EKVX NSCLC) | TGI (SF-295 CNS)

N=c1sc2ccccc2n1CCS (tested in a mixture with another compound)
42 µM: TGI (SF-295 CNS)
45.8 µM: TGI (UACC-257 melanoma)
26.9 µM: TGI (UACC-62 melanoma)
62.3 µM: TGI (EKVX NSCLC)
30.5 µM: TGI (HCT-116 colon) | TGI (LOX IMVI melanoma)
27.5 µM: TGI (NCI-H460 lung)
25.8 µM: TGI (UO-31 renal)
45.5 µM: TGI (SK-MEL-2 melanoma)
46.9 µM: TGI (OVCAR-4 ovarian)
> 100 µM: TGI (CCRF-CEM leukemia) | TGI (SNB-75 CNS)

COc1cccc2c1C(=O)c1c(O)c3c(c(O)c1C2=O)C[C@@](O)(C(=O)CO)CC3OC1CC(N(C)CCOCC(OC(C)=O)OC(C)=O)C(O)C(C)O1 (some centres undefined)
> 0.01 µM: TGI (UO-31 renal) | TGI (NCI-H460 lung) | TGI (UACC-257 melanoma) | TGI (SK-MEL-2 melanoma) | TGI (OVCAR-4 ovarian) | TGI (UACC-62 melanoma) | TGI (CCRF-CEM leukemia) | TGI (SNB-75 CNS) | TGI (EKVX NSCLC) | TGI (LOX IMVI melanoma) | TGI (SF-295 CNS)

NC(Cc1ccc(CP(=O)(O)O)cc1)C(=O)O (centres undefined)
> 100 µM: TGI (UO-31 renal) | TGI (NCI-H460 lung) | TGI (UACC-257 melanoma) | TGI (SK-MEL-2 melanoma) | TGI (OVCAR-4 ovarian) | TGI (UACC-62 melanoma) | TGI (CCRF-CEM leukemia) | TGI (SNB-75 CNS) | TGI (HCT-116 colon) | TGI (EKVX NSCLC) | TGI (LOX IMVI melanoma) | TGI (SF-295 CNS)

Cc1cccc2cc(/C=C/C(=O)/C=C/c3ccc(Cl)cc3)c(=O)[nH]c12
inactive: GI50 (NCI-H460 lung) > 100 µM | GI50 (UACC-257 melanoma) > 100 µM | GI50 (SK-MEL-2 melanoma) > 100 µM | GI50 (OVCAR-4 ovarian) > 100 µM | GI50 (CCRF-CEM leukemia) 3.98 µM | GI50 (SNB-75 CNS) 16.8 µM | GI50 (EKVX NSCLC) > 100 µM
88.8 µM: TGI (CCRF-CEM leukemia)
0.635 µM: TGI (HCT-116 colon)
active: GI50 (HCT-116 colon) 0.259 µM
> 100 µM: TGI (NCI-H460 lung) | TGI (UACC-257 melanoma) | TGI (SK-MEL-2 melanoma) | TGI (OVCAR-4 ovarian) | TGI (SNB-75 CNS) | TGI (EKVX NSCLC)

CN1C2CCC1/C(=C/c1cccc3c1OCO3)C(=O)/C2=C\c1cccc2c1OCO2
49.7 µM: TGI (SNB-75 CNS)
91.4 µM: TGI (UACC-62 melanoma)
> 100 µM: TGI (UO-31 renal) | TGI (NCI-H460 lung) | TGI (UACC-257 melanoma) | TGI (SK-MEL-2 melanoma) | TGI (CCRF-CEM leukemia) | TGI (HCT-116 colon) | TGI (EKVX NSCLC) | TGI (LOX IMVI melanoma)
84.6 µM: TGI (SF-295 CNS)

CC(=O)CCC#Cc1ccccc1C(=O)C(C)=[N+]=[N-]
38.7 µM: TGI (UACC-62 melanoma)
> 100 µM: TGI (UO-31 renal) | TGI (NCI-H460 lung) | TGI (UACC-257 melanoma) | TGI (SK-MEL-2 melanoma) | TGI (OVCAR-4 ovarian) | TGI (CCRF-CEM leukemia) | TGI (EKVX NSCLC) | TGI (LOX IMVI melanoma) | TGI (SF-295 CNS)
69.2 µM: TGI (SNB-75 CNS)
47.8 µM: TGI (HCT-116 colon)

O=C(O)C(Cc1cc(I)c(O)c(I)c1)C1CCCCC1 (centres undefined)
88.7 µM: TGI (HCT-116 colon)
46 µM: TGI (NCI-H460 lung)
> 100 µM: TGI (UO-31 renal) | TGI (UACC-257 melanoma) | TGI (OVCAR-4 ovarian) | TGI (UACC-62 melanoma) | TGI (CCRF-CEM leukemia) | TGI (SNB-75 CNS) | TGI (EKVX NSCLC) | TGI (LOX IMVI melanoma) | TGI (SF-295 CNS)

Fc1ccc(Nc2nc(Cl)c3[nH]cnc3n2)cc1Cl
33.5 µM: TGI (UO-31 renal)
> 100 µM: TGI (NCI-H460 lung) | TGI (UACC-257 melanoma) | TGI (SK-MEL-2 melanoma) | TGI (OVCAR-4 ovarian) | TGI (UACC-62 melanoma) | TGI (CCRF-CEM leukemia) | TGI (SNB-75 CNS) | TGI (HCT-116 colon) | TGI (EKVX NSCLC) | TGI (LOX IMVI melanoma) | TGI (SF-295 CNS)
